In patent US20170022258A1, “PEPTIDES FOR USE IN THE TREATMENT OF IL-1 RELATED DISEASES AND CONDITIONS” (C4M PHARMACEUTICALS PTY LTD., priority 2011, published 2017):
Where two headings read alike, the source gives them in different places. Non-standard residues stand in square brackets, D forms with d. Residues, ends and D or L forms follow the SMILES beside them. No end group written: not given here.

T1: IL-1 receptor (Homo sapiens, UniProt P14778)
T1 construct: confluent human monocytes, which express the IL-1 receptor; endogenous in cells; host or cells: human monocytes
T1 sequence (P14778 18-569): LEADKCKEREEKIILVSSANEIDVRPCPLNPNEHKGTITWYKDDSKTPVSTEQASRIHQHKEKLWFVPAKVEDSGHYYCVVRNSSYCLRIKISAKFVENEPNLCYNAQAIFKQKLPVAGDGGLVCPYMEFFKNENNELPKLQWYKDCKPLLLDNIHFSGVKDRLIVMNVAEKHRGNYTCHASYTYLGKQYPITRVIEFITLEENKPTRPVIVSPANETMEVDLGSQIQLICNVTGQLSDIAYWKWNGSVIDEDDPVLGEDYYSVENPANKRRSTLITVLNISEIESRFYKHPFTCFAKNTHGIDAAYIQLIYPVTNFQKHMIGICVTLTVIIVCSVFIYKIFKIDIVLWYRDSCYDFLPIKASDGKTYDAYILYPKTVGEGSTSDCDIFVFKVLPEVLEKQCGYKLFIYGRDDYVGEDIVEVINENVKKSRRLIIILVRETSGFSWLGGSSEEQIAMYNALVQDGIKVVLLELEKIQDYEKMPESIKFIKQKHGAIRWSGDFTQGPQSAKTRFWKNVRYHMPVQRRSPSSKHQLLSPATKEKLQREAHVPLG

T2: IL-1 receptor (IL-1R) expressed on human monocytes (human, UniProt P14778 18-569)
T2 sequence (looked up): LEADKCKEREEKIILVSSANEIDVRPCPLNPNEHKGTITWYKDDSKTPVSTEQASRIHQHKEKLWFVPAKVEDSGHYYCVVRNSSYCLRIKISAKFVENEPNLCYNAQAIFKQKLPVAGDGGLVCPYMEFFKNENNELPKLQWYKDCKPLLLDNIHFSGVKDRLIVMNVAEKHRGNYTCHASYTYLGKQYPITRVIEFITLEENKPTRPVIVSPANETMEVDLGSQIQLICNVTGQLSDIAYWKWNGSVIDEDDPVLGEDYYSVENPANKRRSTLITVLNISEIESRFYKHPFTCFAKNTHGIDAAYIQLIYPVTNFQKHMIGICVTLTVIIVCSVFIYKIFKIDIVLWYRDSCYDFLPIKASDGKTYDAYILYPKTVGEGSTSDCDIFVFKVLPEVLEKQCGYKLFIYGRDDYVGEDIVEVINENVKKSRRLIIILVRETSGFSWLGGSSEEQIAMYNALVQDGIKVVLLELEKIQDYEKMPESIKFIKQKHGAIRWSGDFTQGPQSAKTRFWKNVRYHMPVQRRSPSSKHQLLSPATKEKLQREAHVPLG


Columns and labels:
[1] = Human plasma stability trials; format: in vitro ADME; conditions: 37° C., 12 hours, read-out: ½ Life human plasma
Description: 1 mg of each peptide was added to the plasma and the solution was gently agitated for 2 minutes at room temperature before standing at 37° C. for a period of 12 hours.

[2] = Solubility of peptide under different solvent conditions; format: physicochemical; conditions: 30 min room temperature
Description: 100 mg of each peptide was added to 100 ml total of water plus the solvents, and the solution was gently agitated for 30 min at room temperature.

IL-1 receptor = biological target: T1, IL-1 receptor; assay: Radioligand competition binding assay (125I-labeled IL-1α) on human monocytes; conditions: IL-1 binding antagonism on human monocytes; average of three measurements and standard error
Description: (§1) Radioligand competition binding assays were performed in 96-well plates containing confluent human monocytes, which express the IL-1 receptor. Wells were washed three times with binding buffer, and binding buffer was placed in each well. Peptides were resuspended in dimethyl sulfoxide at 20 mM and diluted in binding buffer to the desired starting concentration. Using a Beckman robotic system, five 3-fold dilutions were prepared, and peptide solution was transferred to duplicate receptor-containing wells. To each well, radioactive ^125Iodine-labeled IL-Ia (Amersham) was added to a final concentration of 40 pM, and the plates were placed on a shaking platform at 4° C. for 2 hr. Plates were washed with PBS using a plate washer, and bound ^125I-labeled IL-la was eluted for 10 min with 0.1 M NaOH and counted in a gamma counter. IC50 values were determined by fitting the data to a two-parameter logistic equation. In all cases, nonspecific binding was determined by the addition of 3 μM of recombinant IL-Ia.

[3] = test system: IL-1 stimulation of IL-8 in human skin fibroblasts; assay: Inhibition of IL-1 induced IL-8 in human fibroblasts; format: cell-based; conditions: inhibition of IL-1 stimulation of IL-8 in human skin fibroblasts; average of three measurements and standard error; read-out: Binding (IC50 nM)
Description: Inhibition of IL-1 induced IL-8 in human fibroblasts was determined using normal human dermal fibroblast cells cultured in DMEM with 10% fetal calf serum in 48-well plates.
Twenty-four hours before initiation of the experiment, the medium was changed to DMEM with 0.2% fetal calf serum. Each peptide was added to confluent cells, which were then pulsed for 30 min with rIL-I,B (which was obtained from R & D Systems) at 50 pg/ml. The cells were washed four times with PBS, and fresh DMEM/0.2% fetal calf serum was added to each well. After 5 hr of incubation, the culture media were collected and analyzed by ELISA for IL-8 (which was obtained from R & D Systems). Maximal activation, with IL-1 only, was 2530±13 pg/ml of IL-8. Nonspecific activation, determined in the presence of 1000-fold excess IL-1Ra, was 30±9 pg/ml of IL-8 (n=3).

[4] = Stability of peptide once dissolved in solution (1 month); format: physicochemical; conditions: 1 mg in 5 ml water, bicarbonate and benzyl alcohol (19, 4) or methanol (13, 14); for Stability of peptide once dissolved in solution (at 1 month), Room Temp (month): room temperature
Description: Each of the peptides having the sequences 13, 14, 19 and 4 were tested to determine their stability in a solution containing (preferred composition above) water, bicarbonate and either benzyl alcohol (peptide 19 and 4) or methanol (peptide 13 and 14). Each of the peptides were held for a period of 1 month at either 4° C. or at room temperature.
1 mg of each peptide was added to the water, bicarbonate and either benzyl alcohol or methanol solution and the solution was gently agitated for 1 hour at room temperature before standing at either 4° C. or at room temperature for a period of 1 month.

[5] = test system: thoroughbred having equine laminitis; assay: Effect of peptides on equine laminitis (Obel Lameness Grades); format: in vivo, horse; conditions: for Change in Obel Score: 1 mg intravenously, before vs 24 hours after injection, most negative = greatest improvement; for Duration (days) of effect on laminitis: single 1 mg intravenous, averaged, report by veterinarians
Description: Each of the peptides having the sequences 13, 14, 19 and 4 were also tested to determine their effect on equine laminitis. Each peptide was administered intravenously to a thoroughbred having equine laminitis. The peptides were prepared as compositions containing 1 mg of peptide dissolved in 5 ml of a solution comprising water, bicarbonate and either benzyl alcohol or methanol. The effect of the peptides on equine laminitis was judged by the Obel Lameness Grades, which is a system of rating degrees of lameness resulting from laminitis. […] Obel Grade III horses do resist having a foreleg lifted, and are reluctant to walk. Obel Grade IV horses will walk only if forced. The Obel Score for each of the horses was measured before administration of the peptide and 24 hours after injection of the peptide. […] The effect in reducing laminitis which was caused by one single injection of the peptides on laminitis was short-lived. Therefore, the duration of the effect of the peptides in reducing laminitis was further assessed by attending veterinarians.

[6] = biological target: T2, IL-1 receptor (IL-1R) expressed on …; assay: cell-based or functional assay
[7] = biological target: T2, IL-1 receptor (IL-1R) expressed on …; assay: radioligand competition, 40 pM 125I-IL-1α on confluent human monocytes
Description: as §1, with “¹²⁵Iodine-labeled” for “^125Iodine-labeled”, “¹²⁵I-labeled” for “^125I-labeled”, “IC₅₀” for “IC50”

[8] = benzyl alcohol (0.1-1%) in water, benzyl alcohol (0.1-1%), 100 mg peptide in 100 ml, read-out: Solubility: Benzyl Alcohol
[9] = hydrochloric acid (0.1-1%) in water, hydrochloric acid (0.1-1%), 100 mg peptide in 100 ml water plus solvent, read-out: Solubility: Acid
[10] = methanol (1-10%) in water, methanol (1-10%), 100 mg peptide in 100 ml, read-out: Solubility: Methanol
[11] = sodium bicarbonate (0.1-1%) in water, sodium bicarbonate (0.1-1%), 100 mg peptide in 100 ml, read-out: Solubility: Base

half-life [1] | solubility at 30 min [2, 8] | solubility at 30 min [2, 9] | solubility at 30 min [2, 10] | solubility at 30 min [2, 11] | IC50 (IL-1 receptor) | Stability of peptide once dissolved in solution (at 1 month), 4° C. (month) [4] | Stability of peptide once dissolved in solution (at 1 month), Room Temp (month) [4] | IC50, in vitro inhibition of IL-1 stimulation of IL-8 in human skin fibroblasts (rIL-1β 50 pg/ml, IL-8 ELISA) [6] | IC50 [7] | Molecule | IC50 [3] | Change in Obel Score [5] | Duration (days) of effect on laminitis [5]
49 min | > 1000 µg/mL | < 1000 µg/mL |  | < 1000 µg/mL |  | 95% | 48% |  |  | CC(=O)N[C@@H](Cc1ccccc1)C(=O)N[C@@H](CCC(=O)O)C(=O)N[C@@H](Cc1c[nH]c2ccccc12)C(=O)N[C@H](C(=O)N1CCC[C@H]1C(=O)NCC(=O)N[C@@H](Cc1ccc(O)cc1)C(=O)N[C@@H](Cc1c[nH]c2ccccc12)C(=O)N[C@@H](CCC(N)=O)C(=O)N1CCC[C@H]1C(=O)N[C@@H](Cc1ccc(O)cc1)C(=O)N[C@@H](C)C(=O)N[C@@H](CC(C)C)C(=O)N1CCC[C@H]1C(=O)N[C@@H](CC(C)C)C(=O)O)[C@@H](C)O [SEQ ID NO. 19, Ac FEWTPGYWQPYALPL, reference compound] (Ac-FEWTPGYWQPYALPL-OH; C-terminus assumed) | 10 nM | −2.1 | 2 days
 |  |  |  |  |  |  |  | 19 nM | 8.1 nM | Ac-DGYDRWRQSGERYWQPYALPL (also called peptide 20) [peptide of SEQ ID NO: 20 (Ac-DGYDRWRQSGERYWQPYALPL)] |  |  | 

Further lines, the molecule ahead of its results:

Molecule | half-life [1] | solubility at 30 min [2, 8] | solubility at 30 min [2, 9] | solubility at 30 min [2, 10] | solubility at 30 min [2, 11] | IC50 (IL-1 receptor) | Stability of peptide once dissolved in solution (at 1 month), 4° C. (month) [4] | Stability of peptide once dissolved in solution (at 1 month), Room Temp (month) [4] | IC50, in vitro inhibition of IL-1 stimulation of IL-8 in human skin fibroblasts (rIL-1β 50 pg/ml, IL-8 ELISA) [6] | IC50 [7] | IC50 [3] | Change in Obel Score [5] | Duration (days) of effect on laminitis [5]
CC(=O)N[C@H](CC(C)C)C(=O)N1CCC[C@@H]1C(=O)N[C@H](CC(C)C)C(=O)N[C@H](C)C(=O)N[C@H](Cc1ccc(O)cc1)C(=O)N1CCC[C@@H]1C(=O)N[C@H](CCC(N)=O)C(=O)N[C@H](Cc1c[nH]c2ccccc12)C(=O)N[C@H](Cc1ccc(O)cc1)C(=O)N[C@H](Cc1ccc(O)cc1)C(=O)N[C@H](C)C(=O)N[C@H](CC(N)=O)C(=O)N[C@H](CO)C(=O)N[C@H](CCC(=O)O)C(=O)N[C@H](CCC(=O)O)C(=O)N[C@H](Cc1c[nH]c2ccccc12)C(=O)N[C@@H](C(=O)N[C@H](Cc1ccccc1)C(=O)N1CCC[C@@H]1C(=O)N[C@@H](C(=O)N[C@H](CCC(=O)O)C(=O)O)[C@H](C)O)[C@H](C)O [SEQ ID NO. 14] (Ac-[dL][dP][dL][dA][dY][dP][dQ][dW][dY][dY][dA][dN][dS][dE][dE][dW][dT][dF][dP][dT][dE]-OH; C-terminus assumed) | 333 min | < 1000 µg/mL | < 1000 µg/mL | > 1000 µg/mL | < 1000 µg/mL | 9.2 nM | 78% | 18% |  |  | 11 nM | −1.1 | 2 days
CC(=O)N[C@@H](CCC(=O)O)C(=O)N[C@H](C(=O)N1CCC[C@H]1C(=O)N[C@@H](Cc1ccccc1)C(=O)N[C@H](C(=O)N[C@@H](Cc1c[nH]c2ccccc12)C(=O)N[C@@H](CCC(=O)O)C(=O)N[C@@H](CCC(=O)O)C(=O)N[C@@H](CO)C(=O)N[C@@H](CC(N)=O)C(=O)N[C@@H](C)C(=O)N[C@@H](Cc1ccc(O)cc1)C(=O)N[C@@H](Cc1ccc(O)cc1)C(=O)N[C@@H](Cc1c[nH]c2ccccc12)C(=O)N[C@@H](CCC(N)=O)C(=O)N1CCC[C@H]1C(=O)N[C@@H](Cc1ccc(O)cc1)C(=O)N[C@@H](C)C(=O)N[C@@H](CC(C)C)C(=O)N1CCC[C@H]1C(=O)N[C@@H](CC(C)C)C(=O)O)[C@@H](C)O)[C@@H](C)O [SEQ ID NO. 13, reference compound] (Ac-ETPFTWEESNAYYWQPYALPL-OH; C-terminus assumed) | 46 min | < 1000 µg/mL | < 1000 µg/mL | > 1000 µg/mL | < 1000 µg/mL | 11 nM | 21% | 1% |  |  | 11 nM | −0.5 | 1 days
